Columns and labels:
human ES cells [1] = test: Cell adhesion assay, 1 hour (Example 1); type: cell-based; conditions: O3 medium without any additives, without Y-27632
Procedure: Ninety-six-well tissue cell culture plates were coated overnight at 4° C. with sterile solutions of the ECM proteins mouse LN-111 (Invitrogen), human recombinant LN-511, and human recombinant LN-521, all at a concentration of 30 μg/ml (5 μg/cm^2). For control cells, BD Matrigel™ hESC qualified (BD Biosciences) was used according to the manufacturer's instructions.
The assay was performed as described (Extracellular Matrix Protocols, 2000). Briefly, 96-well plates were coated by extracellular matrix proteins as described above and blocked by O3 medium containing bovine serum albumin. The ES cells were plated at a cell density of 600 cell/mm^2 upon extracellular matrix-coated plates and were left to adhere for either 1 hour or 1 day at the cell incubator. Non-adherent cells were washed away, and adherent cells were fixed for 20 min by 5% glutaraldehyde, stained by 0.1% Crystal Violet.

human ES cells [2] = test: Long-term culture with single cell dissociation passaging (Example 1); type: cell-based
Procedure: Human ES cells were cultured on r-laminin-521-coated laboratory dishes in chemically defined O3 medium (described in Rodin et al., Nature Biotechnol., vol. 28, pp. 611-615 (2010)) at 37° C. in 5% CO2. Cells were routinely passed once every 10-12 days by exposure to Trypsin-EDTA solution (GIBCO Invitrogen) for 5 minutes at 37° C. They were then gently pipetted to break into single-cell suspension and defined trypsin inhibitor (GIBCO Invitrogen) was added. The cell suspension was centrifuged […], the supernatant discarded, the cell pellet resuspended in prewarmed O3 medium, and cells were then passed through a 40 μm sieve. After that cells were plated on new r-laminin-521-coated dishes at a concentration 30 Kcells/cm^2 (1:25-1:30 split ratio). Cells were fed once a day with fresh medium prewarmed in an incubator for 1 hour, except for the first day after a passage, when only a few drops of fresh medium were added. Control cells of the same line were cultured on Matrigel (BD Biosciences) in O3 medium as described in Rodin et al., Nature Biotechnol., vol. 28, pp. 611-615 (2010). Control cells were passaged in pieces.

human ES and iPS cells = test: Long-term self-renewal culture on LN-521 (Example 2); type: cell-based
[3] = test system: Oct4, Nanog, SSEA4, PAX6, SOX17, SOX7; test: Expression of pluripotency and differentiation markers (immunofluorescence, RT-PCR, FACS); type: cell-based, human; conditions: similar to cells on Matrigel passed as small clumps
Procedure: For immunofluorescence studies, ES cells were cultured and fixed in 8-well slide chambers (BD Biosciences) or 96-well plate wells by 4% paraformaldehyde, permeabilized by 0.1% Triton-X and blocked by 10% bovine fetal serum (GIBCO Invitrogen Corporation) in phosphate-saline buffer (PBS) containing 0.1% Tween-20 (Sigma-Aldrich, St. Louis, http://www.sigmaaldrich.com) for one hour. Incubation with primary antibody was performed for 1.5 hours at room temperature. Incubation with secondary antibody and 4,6-diamidino-2-phenylindole (DAPI, Molecular Probes) was performed for 40 minutes. Between incubations, the specimens were washed with 0.1% Tween-20 in PBS buffer three to five times. Specimens were preserved in a fluorescence mounting medium (Dako, Glostrup, Denmark, http://www.dako.com), and observed under a fluorescence microscope (Leica, Heerbrugg, Switzerland, http://www.leica.com).
Total RNA was isolated using Absolutely RNA Microprep Kit (Stratagene, La Jolla Calif., www.stratagene.com) according to the manufacturer's instructions. cDNA was synthesized using 0.2 μg of total RNA in 20 μl reaction mixture, containing oligo(dT)12-18 primers and Superscript II reverse transcriptase (GIBCO Invitrogen Corporation), according to the manufacturer's instructions. […] All data was analyzed with 7300 System SDS Software v 1.4. […]

[4] = test system: PI3K/Akt and MEK1/Erk pathways; test: Western blot with antibodies to phospho-Akt / phospho-Erk; type: cell-based, human; conditions: data not shown
Procedure: HS 181 cells were trypsinized into single cell suspension as described above. For inhibition experiments, the cells were kept in O3 medium with blocking antibodies or pathway inhibitors for 30 minutes and then 450K cells were plated on 35 mm dishes precoated with the appropriate matrix coating. For other experiments, same number of cells was plated directly after trypsinization. In all cases the cells were allowed to spread for 1 hour at 37° C., 5% CO2. After two washings in ice-cold PBS, the plates with cells were snap frozen in liquid nitrogen and stored at −80° C. To prepare samples for western blots and ELISA, the plates were slowly thawed and kept on ice with 100-150 μl of lysis buffer (50 mM Tris-HCl, pH7.5, 150 mM NaCl, 0.5% deoxycholate, 0.5% SDS, 1% Triton X-100, 1% Igepal, Complete™ (Roche) and Phospho-Stop™ (Roche)) on top. Then, the cells were scraped, pipetted and sheared through a 27G ¾″ needle. After that, the cell pellets were clarified by centrifugation at 16,100 rcf for 15 minutes at 4° C. For western blots, 4-12% gradient gels were used for SDS electrophoresis and the proteins were transferred to PVDF membranes. The membrane was hybridized with the antibody of interest according to the manufacturer's instructions. […] For the densitometry analysis the films were scanned at 2,400 dpi and analyzed by the Chemilmager5500 program (1D-Multi Line densitometry mode). […]

## LN-521: protein formed by joining α5, β2 and γ1 laminin chains; human recombinant, produced in HEK293 cells
Human ES cells [1]
  adhesion of human ES cells at 1 hour: roughly the same
Human ES cells [2]; LN-521 single cell passaging vs Matrigel clumps
  increase in the number of cells versus time compared with Matrigel: much faster rate
Human ES cells [2]; single cell suspension passaging every 10-12 days, 1:25 to 1:30 ratios (3 months)
  passages with robust proliferation at stable and high rate: at least 9 passages
Human ES and iPS cells; ChiPSW cells, mTeSR1
  passages cultured: 3 passages
Human ES and iPS cells; CutB1.2 iPS cells, mTeSR1
  passages cultured: 5 passages
Human ES and iPS cells; H1 cells, O3 medium (6 months)
  passages of proliferation: ≥ 15 passages
Human ES and iPS cells; H1 cells, TeSR2 (5 months)
  passages cultured: 12 passages
Human ES and iPS cells; HS181 cells, O3 medium (9 months)
  passages of proliferation: at least 24 passages
Human ES and iPS cells; HS401 cells, O3 medium (2 months)
  passages of proliferation: ≥ 5 passages
Human ES and iPS cells; HS401 cells, TeSR2 (1.5 months)
  passages cultured: 4 passages
[3]
  expression of pluripotency markers Oct4, Nanog, and SSEA4: stable expression levels
[4]
  PI3K/Akt pathway activity (phospho-Akt western blot): active

From patent publication US10138292B2, “Cell culture medium” (BIOLAMINA AB, priority 2010, dated 2018)
